In brackets after ≈: the same amount, converted by molar mass. Like-named read-outs stand apart in the source and are kept apart here.
How the values were obtained:
[1] = target: T1, S. aureus ATCC 29213 FabI (Staphylococcus aureus, UniProt Q6GI75); test: Staphylococcus aureus FabI enzyme inhibition assay; type: biochemical; conditions: read-out: FabI (300.235) IC50 (converted)
T1 sequence (Q6GI75 1-256): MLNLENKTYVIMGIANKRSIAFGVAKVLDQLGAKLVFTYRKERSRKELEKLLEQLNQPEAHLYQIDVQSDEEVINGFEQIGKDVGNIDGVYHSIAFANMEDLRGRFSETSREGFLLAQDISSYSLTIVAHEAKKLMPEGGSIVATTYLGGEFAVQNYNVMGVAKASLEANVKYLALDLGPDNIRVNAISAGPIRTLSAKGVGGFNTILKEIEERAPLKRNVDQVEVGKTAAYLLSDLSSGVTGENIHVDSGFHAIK
In short: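 S. aureus ATCC 29213 FabI (50 μg/ml) with 250 μM crotonoyl-CoA and 625 μM NADH in 100 mM NaADA pH 6.5, inhibitor 50–0.39 μM, 30 min at room temperature. Stopped by Tris pH 9.0 shift; NADH at 340 nm versus no-compound and no-enzyme controls; IC50 in μg/ml.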

[2] = tested on: Staphylococcus aureus ATCC 29213; test: Antibacterial susceptibility testing, IC90 determination (STA); type: cell-based; conditions: resazurin; for STA (361.159) IC90: Staphylococcus aureus ATCC 29213, broth microdilution; for IC90: Staphylococcus aureus, ATCC29213, Staphylococcus aureus ATCC 29213, broth microdilution, read-out: STA (361.159) IC90
In short: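 S. aureus ATCC 29213 tested by broth microdilution in Mueller-Hinton broth, 5×10^5 CFU/ml, two-fold compound dilutions typically 63 to 0.49 μM, 1.25% DMSO, 16-20 h at 35° C. Growth read fluorometrically with resazurin (ex 540/em 590 nm); IC90 in μg/ml is 90% growth-inhibitory concentration.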

S. aureus = test: Antibacterial susceptibility testing, IC90 determination with 10% human serum (STA + 10% HS); type: cell-based, Staphylococcus aureus; conditions: human serum at final concentration of 10%; for IC90: Staphylococcus aureus, read-out: STA + 10% HS (361.169) IC90
In short: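 Broth microdilution in Mueller-Hinton broth with 10% human serum, 5×10^5 CFU/ml S. aureus, two-fold compound dilutions (typically 63 to 0.49 μM), 1.25% DMSO, 16-20 h at 35° C. Growth read fluorometrically with resazurin (ex 540/em 590 nm); IC90 in μg/ml is the 90% growth-inhibitory concentration.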

Human HelaM cells = test: Cytotoxicity MTT assay (HELAM); type: cell-based; conditions: 72 hours
In short: (§1)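 HelaM cells exposed 72 h at 37° C to serial dilutions, typically 25 to 0.8 μM, in 0.5% DMSO. MTT formazan dissolved in 2-propanol, absorbance at 540 nm minus 690 nm; CC50 is concentration halving viability.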

[3] = Cytotoxicity MTT assay (HELAM); type: cell-based, Human; conditions: human, HelaM cells, read-out: HELAM (222.125) CC50
In short: as §1

[4] = In vivo pharmacokinetic and oral bioavailability in mouse; parameters: species or system male Swiss mice; conditions: for Vdz: i.v.; for half-life: read-out: Half life (t1/2) (converted); for clearance: read-out: Plasma clearance Cl (converted)
Procedure: The in vivo pharmacokinetics and oral bioavailability of the compound of the examples were/are investigated in male Swiss mice (fed) following single intravenous (i.v.) bolus and oral (p.o.) administration. For the i.v. and p.o. solution formulations, the compound was/is dissolved in a 20% HP-β-CD solution. The pH of the formulations was/is around pH 4. All i.v. formulations were isotonic.

[5] = tested on: S. aureus strain ATCC 29213; test: In vivo efficacy, peritonitis model of S. aureus infection; conditions: female Swiss albino mice, IP infection, inoculum 8.7 log10, IV, QD, 20% CD + 2H2T, 3 days post-infection
Source text: The concept of studying the in vivo effect of an antibacterial compound by treating intraperitoneally infected mice was introduced in 1911 for optochin against pneumococci (Morgenroth and Levy, 1911). The popularity of the model comes from the ease of its use with short-duration experiments, reproducible infections and simple end-points.
Methicillin-sensitive S. aureus strain ATCC 29213 was used to infect female Swiss albino mice. A Brain Heart Infusion (BHI) broth bacterial culture was inoculated the day before infection, incubated at 37° C. overnight and diluted in fresh BHI broth to the desired concentration. Intraperitoneal (i.p.) injection of ˜5×10^9 colony forming units (CFU) was performed in either of the lateral lower quadrants of the abdomen. After inoculation, mice were kept in their cages under daily observation for development of signs of infection or death. For the treatment of mice, the p.o. route was used and each mouse was treated individually by gavage. Example of Cpd No. 48 was formulated as a 20% HP-β-cyclodextrin and example of Cpd No. 38 was formulated as a water/Tween-20 suspension. The parameter used for monitoring the course of infection and the effect of treatment was death or survival of the animals over 3 days post-infection. As death could also be due to toxic side effects, a non-infected control group of 3 mice, treated with the highest dose of the compound tested, was included.

[6] = Thermodynamic solubility (pH solubility profiling); type: physicochemical; conditions: thermodynamic from solid
Procedure: The pH solubility profiling was carried out at ambient temperature for a period of 4 days. A saturation solubility study was carried out in order to determine maximum solubility in a particular buffer solution. The compound was added to respective buffer solution until saturation point is reached. This was followed by shaking the flask for 4 days at ambient temperature. After 4 days, the solutions were filtered and injected on UPLC and the concentration was determined using a generic HPLC method.

[7] = 2.5 mg/kg, 20% HP-β-cyclodextrin
[8] = male, Swiss, plasma, iv, 2.5 mg/kg, 20% HP-β-cyclodextrin
[9] = male, Swiss, plasma, po, 10 mg/kg, 20% HP-β-cyclodextrin
[10] = aqueous buffer, Buffer pH 4, ambient temperature
[11] = aqueous buffer, Buffer pH 7.4, ambient temperature
[12] = aqueous with cosolvent or surfactant or cyclodextrin, 10% HP-β-CD buffer pH 4, ambient temperature
[13] = aqueous with cosolvent or surfactant or cyclodextrin, 10% HP-β-CD buffer pH 7.4, ambient temperature
[14] = aqueous with cosolvent or surfactant or cyclodextrin, 20% HP-β-CD buffer pH 4, ambient temperature
[15] = aqueous with cosolvent or surfactant or cyclodextrin, 20% HP-β-CD buffer pH 7.4, ambient temperature
[16] = pH 2, aqueous with cosolvent or surfactant or cyclodextrin, 20% HP-β-CD 0.01N HCl, ambient temperature
[17] = pH 2, simulated gastric fluid, 0.01N HCl, ambient temperature
[18] = male, Swiss, plasma, po, 5 mg/kg, 20% HP-β-cyclodextrin

Row | SMILES | IC50 [1] [nM] | STA (361.159) IC90 [2] [µg/mL] | STA + 10% HS (361.169) IC90 (S. aureus) [µg/mL] | melting point [°C] | IC90 [2] [µg/mL] | IC90 (S. aureus) [µg/mL] | solubility thermodynamic at 4 days [6, 10] [µg/mL] | solubility thermodynamic at 4 days [6, 11] [µg/mL] | solubility thermodynamic at 4 days [6, 12] [µg/mL] | solubility thermodynamic at 4 days [6, 13] [µg/mL] | solubility thermodynamic at 4 days [6, 14] [µg/mL] | solubility thermodynamic at 4 days [6, 15] [µg/mL] | solubility thermodynamic at 4 days [6, 16] [µg/mL] | solubility thermodynamic at 4 days [6, 17] [µg/mL] | HELAM (222.125) CC50 (Human HelaM cells) [µg/mL] | CC50 at 72 h [3] [µg/mL] | Vdz [4, 7] [L/kg] | AUC(0-inf) [4, 8] [ng·h/mL] | half-life [4, 8] [h] | clearance [4, 8] [mL/min/kg] | further results
1 | O=C1CNCc2cc(/C=C/C(=O)N3CC4C=C(c5ccccc5)CC4C3)cnc2N1 (stereo not shown) [Cpd. No. 38] | 1050 | – | – | – | < 0.19 | 0.24 | – | – | – | – | – | – | – | – | – | > 10.1 | 3.1 | 2000 | 1.7 | 21.7 | AUC(0-inf) [4, 9]: 2860 ng·h/mL; Cmax [4, 9]: 665 ng/mL; Tmax [4, 9]: 1.7 h; half-life [4, 9]: 2.2 h; bioavailability ([4]; male, Swiss, plasma, po, p.o. 10 mg/kg vs i.v. 2.5 mg/kg): 36%; % Survival ([5]; 2.5 mpk): 75%; % Survival ([5]; 5 mpk): 100%
2 | O=C1Nc2ncc(/C=C/C(=O)N3CC4C=C(c5nccs5)CC4C3)cc2CN2CCOCC12 (stereo not shown) [Cpd. No. 74] | 992 | – | – | > 260 | < 0.23 | < 0.23 | 40 (≈ 86.3 µM) | 30 (≈ 64.7 µM) | > 1280 | > 1210 | > 2360 | > 1330 | > 2360 | 670 (≈ 1450 µM) | – | > 11.2 | – | – | – | – | –
3 | O=C(Nc1ccc(/C=C/C(=O)N2CC3C=C(c4ccncc4)CC3C2)cn1)c1cccnc1 (stereo not shown) [compound 9] | – | – | – | 196 | 0.34 (≈ 0.777 µM) | 0.39 | 120 (≈ 274 µM) | < 10 | 830 (≈ 1900 µM) | > 1120 | > 5230 | > 4940 | > 4930 | > 1250 | – | > 11 | – | – | – | – | –

Continued, in another order:

Row | IC50 [1] [nM] | STA (361.159) IC90 [2] [µg/mL] | STA + 10% HS (361.169) IC90 (S. aureus) [µg/mL] | melting point [°C] | IC90 [2] [µg/mL] | IC90 (S. aureus) [µg/mL] | solubility thermodynamic at 4 days [6, 10] [µg/mL] | solubility thermodynamic at 4 days [6, 11] [µg/mL] | solubility thermodynamic at 4 days [6, 12] [µg/mL] | solubility thermodynamic at 4 days [6, 13] [µg/mL] | solubility thermodynamic at 4 days [6, 14] [µg/mL] | solubility thermodynamic at 4 days [6, 15] [µg/mL] | solubility thermodynamic at 4 days [6, 16] [µg/mL] | solubility thermodynamic at 4 days [6, 17] [µg/mL] | SMILES | HELAM (222.125) CC50 (Human HelaM cells) [µg/mL] | CC50 at 72 h [3] [µg/mL] | Vdz [4, 7] [L/kg] | AUC(0-inf) [4, 8] [ng·h/mL] | half-life [4, 8] [h] | clearance [4, 8] [mL/min/kg] | further results
4 | 1030 | 0.15 | 0.22 | – | – | – | – | – | – | – | – | – | – | – | O=C1Nc2ncc(/C=C/C(=O)N3CC4C=C(c5ccccc5)CC4C3)cc2CN2CCOCC12 (stereo not shown) [compound 69] | 8.31 | – | – | – | – | – | –
5 | 2180 | 5.50 | 3.85 | 178 | – | – | – | – | – | – | – | – | – | – | CN1CC(=O)Nc2ncc(/C=C/C(=O)N3C[C@@H]4CN(c5ccccc5)C[C@@H]4C3)cc2C1 [compound 60] | >10.49 | – | – | – | – | – | –
6 | ~1160 | – | – | > 260 | < 0.19 | 0.25 | – | – | – | – | – | – | – | – | O=C1COc2cc(/C=C/C(=O)N3CC4C=C(c5ccccc5)CC4C3)cnc2N1 (stereo not shown) [compound 37] | – | > 9.73 | 1.5 | 7890 | 3.33 | 5.33 | C0 [4, 8]: 3930 ng/mL; AUC(0-inf) [4, 18]: 15600 ng·h/mL; Cmax [4, 18]: 2330 ng/mL; Tmax [4, 18]: 1 h; half-life [4, 18]: 3.5 h; bioavailability ([4]; male, Swiss, plasma, po, p.o. 5 mg/kg vs i.v. 2.5 mg/kg): 98%

Source: patent publication US9315522B2, “Antibacterial compounds” (JANSSEN SCIENCES IRELAND UC, priority 2012, dated 2016)
